From the supplement of paper PMC10307832

How the values were obtained:
Test in all cases: relative viability (nuclei count vs DMSO), 5 days (fraction); higher = more cells survive
[1] = compound: CC(C)N(CCCNC(=O)Nc1ccc(C(C)(C)C)cc1)C[C@H]1O[C@@H](n2ccc3c(N)ncnc32)[C@H](O)[C@@H]1O + CS(=O)(=O)CCNCc1ccc(-c2ccc3ncnc(Nc4ccc(OCc5cccc(F)c5)c(Cl)c4)c3c2)o1 [Lapatinib] (partner 2 µM)
Method in brief: (§1)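 Relative viability divides the nuclei count in treated wells by that in vehicle wells. Lung cancer cell lines were seeded in 1536-well plates, dosed by pin tool the next day, and fixed and stained after 5 days in one step with final 0.05% Triton X-100, 1% formaldehyde and 1 ug/ml Hoechst. Dosing was a single drug or a fixed anchor-drug dose plus five library-drug doses (not always all listed) in √10 steps, and values are medians of duplicate plates imaged at 4×.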

[2] = compound: CC(C)N(CCCNC(=O)Nc1ccc(C(C)(C)C)cc1)C[C@H]1O[C@@H](n2ccc3c(N)ncnc32)[C@H](O)[C@@H]1O + Nc1nc2[nH]cc(CCc3ccc(C(=O)N[C@@H](CCC(=O)O)C(=O)O)cc3)c2c(=O)[nH]1 [Pemetrexed] (partner 0.2 µM)
Method in brief: as §1

[3] = compound: CC(C)N(CCCNC(=O)Nc1ccc(C(C)(C)C)cc1)C[C@H]1O[C@@H](n2ccc3c(N)ncnc32)[C@H](O)[C@@H]1O + COc1cccc2cc(-c3nc([C@H]4CC[C@H](C(=O)O)CC4)n4ncnc(N)c34)[nH]c12 [OSI-027] (partner 0.5 µM)
Method in brief: as §1

Shikonin + Foretinib = compound: CC(C)=CC[C@@H](O)C1=CC(=O)c2c(O)ccc(O)c2C1=O [Shikonin] + COc1cc2c(Oc3ccc(NC(=O)C4(C(=O)Nc5ccc(F)cc5)CC4)cc3F)ccnc2cc1OCCCN1CCOCC1 [Foretinib] (partner 0.25 µM)
Method in brief: as §1

| Cell Line | relative viability ([1]; first compound 0.08 µM) | relative viability ([1]; first compound 0.253 µM) | relative viability ([1]; first compound 0.8 µM) | relative viability ([1]; first compound 2.53 µM) | relative viability ([1]; first compound 8 µM) | relative viability ([2]; first compound 0.08 µM) | relative viability ([2]; first compound 0.253 µM) | relative viability ([2]; first compound 0.8 µM) | relative viability ([2]; first compound 2.53 µM) | relative viability ([2]; first compound 8 µM) | relative viability ([3]; first compound 0.08 µM) | relative viability ([3]; first compound 0.253 µM) | relative viability ([3]; first compound 0.8 µM) | relative viability ([3]; first compound 2.53 µM) | relative viability ([3]; first compound 8 µM) | relative viability (Shikonin + Foretinib; first compound 0.01 µM) | relative viability (Shikonin + Foretinib; first compound 0.1 µM) | relative viability (Shikonin + Foretinib; first compound 0.3162 µM) | relative viability (Shikonin + Foretinib; first compound 1 µM) |
| --- | --- | --- | --- | --- | --- | --- | --- | --- | --- | --- | --- | --- | --- | --- | --- | --- | --- | --- | --- |
| NCI-H322M | 0.536 | 0.591 | 0.607 | 0.564 | 0.607 | 0.634 | 0.609 | 0.617 | 0.593 | 0.631 | 0.514 | 0.618 | 0.575 | 0.693 | 0.579 | 0.996 | 1.37 | 1.06 | 0.99 |
| NCI-H358 | 0.433 | 0.443 | 0.427 | 0.357 | 0.393 | 0.183 | 0.159 | 0.162 | 0.168 | 0.166 | 0.75 | 0.61 | 0.724 | 0.752 | 0.714 | 0.651 | 0.729 | 0.707 | 0.604 |
| NCI-H460 | 0.835 | 0.983 | 0.829 | 0.971 | 0.855 | 0.0586 | 0.06 | 0.0609 | 0.0624 | 0.0643 | 0.62 | 0.551 | 0.693 | 0.564 | 0.601 | 1.09 | 0.797 | 1.12 | 0.994 |
| NCI-H520 | 0.712 | 0.58 | 0.655 | 0.845 | 0.811 | 0.614 | 0.743 | 0.663 | 0.787 | 0.7 | 0.181 | 0.248 | 0.235 | 0.348 | 0.267 | 0.801 | 0.759 | 0.8 | 0.696 |
| NCI-H596 | 1.17 | 0.946 | 0.971 | 1.08 | 1.06 | 0.515 | 0.465 | 0.514 | 0.53 | 0.493 | 0.672 | – | 0.507 | 0.829 | 0.748 | 0.868 | 0.824 | 0.777 | 0.941 |
| NCI-H647 | 0.961 | – | 0.856 | 0.983 | 0.933 | 0.197 | 0.164 | 0.143 | 0.194 | 0.176 | 0.511 | 0.579 | – | 0.742 | 0.586 | 1.29 | 1.46 | 1.51 | 1.31 |
| NCI-H650 | 0.921 | 0.889 | 0.775 | 0.791 | 0.871 | 0.882 | 0.884 | 0.908 | 0.742 | 1.01 | 0.485 | 0.63 | 0.602 | 0.468 | 0.504 | 1.01 | 0.999 | 1.08 | 1.01 |
| NCI-H661 | 0.441 | 0.467 | 0.519 | 0.404 | 0.523 | 0.91 | 0.892 | 0.894 | 0.977 | 0.912 | 0.719 | 0.775 | 0.68 | 0.714 | 0.683 | 0.987 | 1.08 | 1.09 | 0.976 |
